The assay concerns the target human MRGPRD (Homo sapiens, UniProt Q8TDS7). In words: MRGPRD antagonist activity, IP-One HTRF assay in CHO cells stably expressing human MRGPRD (versus 100 μM β-Alanine agonist). Format: cell-based. In short, it runs like this:
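CHO cells stably expressing human MRGPRD, plated overnight at 37 °C, were treated with antagonist plus agonist in Tris-HCl/NaCl/LiCl buffer pH 8, incubated 1 h at 37 °C then 1 h at room temperature. IP-1 accumulation read by HTRF; IC50 and percent antagonism of maximum efficacy averaged, SEM reported.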

Chain of human MRGPRD (Q8TDS7 whole entry): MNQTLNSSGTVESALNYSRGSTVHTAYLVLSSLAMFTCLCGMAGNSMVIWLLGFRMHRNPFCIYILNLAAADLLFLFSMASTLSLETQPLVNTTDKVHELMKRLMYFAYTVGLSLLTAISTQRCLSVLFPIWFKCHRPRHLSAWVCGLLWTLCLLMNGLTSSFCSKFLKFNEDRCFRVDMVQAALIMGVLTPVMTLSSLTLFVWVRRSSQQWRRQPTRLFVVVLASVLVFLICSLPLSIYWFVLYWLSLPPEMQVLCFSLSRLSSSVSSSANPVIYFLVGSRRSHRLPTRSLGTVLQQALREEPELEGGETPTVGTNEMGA

The IC50 is the concentration needed to halve the response being measured. The molecule `O=C(Nc1cnn(C2CC2)c1)c1nnn(-c2ccc(-c3ccccc3)cc2)c1C1CC1` [Compound 14-87] returned an IC50 above 3000 nM.

In the case of `CC(=O)c1cc(NC(=O)c2nnn(-c3ccc(-c4ccccc4)cc3)c2C2CC2)ccn1` [Compound 14-88], the IC50 fell in the range of 1000 to 3000 nM.

For `Cc1cc(NC(=O)c2nnn(-c3ccc(-c4ccc(CC#N)cc4)cc3)c2C2CC2)ccn1` [Compound 15-1], the IC50 is below 100 nM.

Turning to `Cc1cc(NC(=O)c2nnn(-c3ccc(-c4ccc(C#N)c(F)c4)cc3)c2C2CC2)ccn1` [Compound 15-2], the IC50 was 100 to 500 nM.

`Cc1ccc(CNC(=O)c2nnn(-c3ccc(-c4ccc(C#N)cc4)cc3)c2C2CC2)cn1` [Compound 15-3] showed an IC50 of 500 to 1000 nM.

For the molecule `Cc1nn(C)c(C)c1-c1ccc(-n2nnc(C(=O)NC(C)c3cnn(C)c3)c2C2CC2)cc1` (stereo not drawn) [Compound 15-4, 5-cyclopropyl-N-(1-(1-methyl-1H-pyrazol-4-yl)ethyl)-1-(4-(1,3,5-trimethyl-1H-pyrazol-4-yl)phenyl)-1H-1,2,3-triazole-4-carboxamide], the IC50 was in the range of 500 to 1000 nM.

The molecule `Cn1c(CNC(=O)c2nnn(-c3ccc(-c4ccc(C#N)cc4)cc3)c2C2CC2)nc2ccccc21` [Compound 15-5] yielded an IC50 of 500 to 1000 nM.

The molecule `Cn1c(CNC(=O)c2nnn(-c3ccc(-c4ccc(CC#N)cc4)cc3)c2C2CC2)nc2ccccc21` [Compound 15-6] came in with an IC50 of 1000 to 3000 nM.

`CC(NC(=O)c1nnn(-c2ccc(-c3ccc(C#N)c(F)c3)cc2)c1C1CC1)c1ccn(C)n1` (stereo not drawn) [Compound 15-7] displayed an IC50 of 1000 to 3000 nM.

As for `CC(NC(=O)c1nnn(-c2ccc(-c3ccc(C#N)cc3)cc2)c1C1CC1)c1cnn(C)c1` (stereo not drawn) [Compound 15-8], the IC50 fell in the range of 1000 to 3000 nM.

With `CC(NC(=O)c1nnn(-c2ccc(-c3ccc(CC#N)cc3)cc2)c1C1CC1)c1cnn(C)c1` (stereo not drawn) [Compound 15-9], the IC50 is above 3000 nM.

Molecule `CC(NC(=O)c1nnn(-c2ccc(-c3ccc(C#N)cc3)cc2)c1C1CC1)c1ccn(C)n1` (stereo not drawn) [Compound 15-10] came in with an IC50 above 3000 nM.

`Cc1ncccc1CNC(=O)c1nnn(-c2ccc(-c3c(C)nn(C)c3C)cc2)c1C1CC1` [Compound 15-11]: the IC50 was in the range of 100 to 500 nM.

As to `Cc1ccc(CNC(=O)c2nnn(-c3ccc(-c4c(C)nn(C)c4C)cc3)c2C2CC2)cn1` [Compound 15-12], the IC50 is 100 to 500 nM.

`Cc1nn(C)c(C)c1-c1ccc(-n2nnc(C(=O)NC(C)(C)c3cccnc3)c2C2CC2)cc1` [Compound 15-13]: the IC50 lay within 500 to 1000 nM.

As to `COc1ccc(-c2ccc(-n3nnc(C(=O)Nc4ccnc(C)c4)c3C3CC3)cc2)cn1` [Compound 15-14], the IC50 was in the range of 100 to 500 nM.

Regarding `CCn1cc(CNC(=O)c2nnn(-c3ccc(-c4cccc(C#N)c4)cc3)c2C2CC2)cn1` [Compound 15-15], the IC50 lay in the range of 1000 to 3000 nM.

`Cc1ccc(C2(NC(=O)c3nnn(-c4ccc(-c5c(C)nn(C)c5C)cc4)c3C3CC3)CC2)cn1` [Compound 15-17]: the IC50 lay in the range of 1000 to 3000 nM.

Take `CCc1ncccc1C1(NC(=O)c2nnn(-c3ccc(-c4ccc(C#N)cc4)cc3)c2C2CC2)CC1` [Compound 15-18]: the IC50 was 1000 to 3000 nM.

`CCn1cc(CNC(=O)c2nnn(-c3ccc(-c4c(C)nn(C)c4C)cc3)c2C2CC2)cn1` [Compound 15-19] showed an IC50 of 100 to 500 nM.

The molecule `Cc1cc(NC(=O)c2nnn(-c3ccc(-c4ccc(C(F)F)nc4)cc3)c2C2CC2)ccn1` [Compound 15-20] registered an IC50 of 100 to 500 nM.

With `COCc1ccc(-c2ccc(-n3nnc(C(=O)Nc4ccnc(C)c4)c3C3CC3)cc2)cn1` [Compound 15-21], the IC50 lay within 500 to 1000 nM.

Molecule `Cc1ccc(CNC(=O)c2nnn(-c3ccc(-c4c(C)nn(-c5ccccc5)c4C)cc3)c2C2CC2)cn1` [Compound 15-22] gave an IC50 below 100 nM.

`CCc1ccc(-c2ccc(-n3nnc(C(=O)Nc4ccnc(C)c4)c3C3CC3)cc2)cn1` [Compound 15-23] displayed a half-inhibitory concentration (IC50) of 100 to 500 nM.

For `Cc1cc(NC(=O)c2nnn(-c3ccc(-c4ccc(CC#N)nc4)cc3)c2C2CC2)ccn1` [Compound 15-24], the concentration for half-maximal inhibition (IC50) lay within 100 to 500 nM.

`Cc1ncccc1CNC(=O)c1nnn(-c2ccc(-c3ccc(C#N)c(F)c3)cc2)c1C1CC1` [Compound 16-1, 1-(4′-cyano-3′-fluoro-[1,1′-biphenyl]-4-yl)-5-cyclopropyl-N-((2-methylpyridin-3-yl)methyl)-1H-1,2,3-triazole-4-carboxamide]: the IC50 is below 100 nM.

On to `Cc1ncccc1CNC(=O)c1nnn(-c2ccc(-c3ccc(CC#N)cc3)cc2)c1C1CC1` [Compound 16-2], for which the IC50 fell in the range of 100 to 500 nM.

Take `Cc1ncccc1CNC(=O)c1nnn(-c2ccc(-c3cccc(CC#N)c3)cc2)c1C1CC1` [Compound 16-3]: the IC50 was 100 to 500 nM.

`CCn1cc(CNC(=O)c2nnn(-c3ccc(-c4ccc(C#N)c(F)c4)cc3)c2C2CC2)cn1` [Compound 16-4] gave an IC50 of 100 to 500 nM.

For the molecule `CCn1cc(CNC(=O)c2nnn(-c3ccc(-c4cccc(CC#N)c4)cc3)c2C2CC2)cn1` [Compound 16-5], the IC50 is 100 to 500 nM.

With `Cc1ccc(CNC(=O)c2nnn(-c3ccc(-c4c(C)nn5ccccc45)cc3)c2C2CC2)cn1` [Compound 17-1], the IC50 fell in the range of 100 to 500 nM.

The molecule `Cc1cc(NC(=O)c2nnn(-c3ccc(-c4ccc(F)nc4)cc3)c2C2CC2)ccn1` [Compound 17-2] displayed an IC50 of 100 to 500 nM.

On to `Cc1ccc(CNC(=O)c2nnn(-c3ccc(-c4ccc(C#N)c(F)c4)cc3)c2C2CC2)cn1` [Compound 17-3, 1-(4′-cyano-3′-fluoro-[1,1′-biphenyl]-4-yl)-5-cyclopropyl-N-((6-methylpyridin-3-yl)methyl)-1H-1,2,3-triazole-4-carboxamide], for which the IC50 is 100 to 500 nM.

As for `CCn1cc(CNC(=O)c2nnn(-c3ccc(-c4ccc(C#N)cc4)cc3)c2C2CC2)cn1` [Compound 17-4], the IC50 was in the range of 100 to 500 nM.

Consider `CCn1cc(CNC(=O)c2nnn(-c3ccc(-c4ccc(CC#N)cc4)cc3)c2C2CC2)cn1` [Compound 17-5], for which the IC50 fell in the range of 100 to 500 nM.

`COc1ccc(C2(NC(=O)c3nnn(-c4ccc(-c5ccc(C#N)cc5)cc4)c3C3CC3)CC2)cn1` [Compound 17-6] returned an IC50 of 100 to 500 nM.

Molecule `CCn1cc(CNC(=O)c2nnn(-c3ccc(-c4ccc(F)cc4)cc3)c2C2CC2)cn1` [Compound 17-7] had an IC50 of 1000 to 3000 nM.

In turn, `CCn1cc(CNC(=O)c2nnn(-c3ccc(-c4ccc(C(N)=O)cc4)cc3)c2C2CC2)cn1` [Compound 17-8] displayed an IC50 of 1000 to 3000 nM.

On to `Cc1ccc(-c2ccc(-n3nnc(C(=O)Nc4ccnc(C)c4)c3C3CC3)cc2)cn1` [Compound 17-9], for which the 50% inhibitory concentration (IC50) fell in the range of 100 to 500 nM.

On to `Cc1nn(C)c(C)c1-c1ccc(-n2nnc(C(=O)Nc3ccncc3)c2C(C)C)cc1` [Compound 17-10], for which the IC50 is below 100 nM.

`CCn1cc(CNC(=O)c2nnn(-c3ccc(-c4c(C)nn(C)c4C)cc3)c2C(C)C)cn1` [Compound 17-11] returned an IC50 below 100 nM.

Molecule `COc1cc(-c2ccc(C#N)cc2)ccc1-n1nnc(C(=O)Nc2ccnc(C)c2)c1C(C)C` [Compound 17-12] returned an IC50 of 100 to 500 nM.

Turning to `CCn1cc(CNC(=O)c2nnn(-c3ccc(-c4ccccc4)cc3)c2C(C)C)cn1` [Compound 17-13], the IC50 was in the range of 100 to 500 nM.

Take `Cc1cc(NC(=O)c2nnn(-c3ccc(-c4ccc(C#N)cc4)cc3F)c2C(C)C)ccn1` [Compound 17-14]: the IC50 lay within 100 to 500 nM.

For the molecule `Cc1cc(NC(=O)c2nnn(-c3ccc(-c4ccc(C#N)cc4)cn3)c2C(C)C)ccn1` [Compound 17-15], the IC50 is 100 to 500 nM.

Turning to `Cc1nn(C)c(C)c1-c1ccc(-n2nnc(C(=O)Nc3ccccc3)c2C(C)C)cc1` [Compound 17-16], the IC50 fell in the range of 100 to 500 nM.

As to `CCn1cc(CNC(=O)c2nnn(-c3ccc(-c4ccc(C#N)cc4)cc3)c2C(C)C)cn1` [Compound 17-17], the IC50 was in the range of 100 to 500 nM.

`Cc1nn(C)c(C)c1-c1ccc(-n2nnc(C(=O)Nc3cccc(C#N)c3)c2C(C)C)cc1` [Compound 17-18] showed an IC50 of 100 to 500 nM.

`CCn1cc(CNC(=O)c2nnn(-c3ccc(-c4ccc(C#N)cc4)cc3F)c2C(C)C)cn1` [Compound 17-19] came in with an IC50 of 100 to 500 nM.

For the molecule `CCn1cc(CNC(=O)c2nnn(-c3ccc(-c4ccc(C#N)cc4)cn3)c2C(C)C)cn1` [Compound 17-20], the IC50 lay in the range of 100 to 500 nM.

`CCn1cc(CNC(=O)c2nnn(-c3ccc(-c4ccc(C#N)cc4)cc3OC)c2C(C)C)cn1` [Compound 17-21] displayed an IC50 of 100 to 500 nM.

In the case of `Cc1nn(C)c(C)c1-c1ccc(-n2nnc(C(=O)NCc3cccnc3)c2C(C)C)cc1` [Compound 17-22], the IC50 lay in the range of 100 to 500 nM.

With `CCn1cc(C2(NC(=O)c3nnn(-c4ccc(-c5ccc(C#N)c(F)c5)cc4)c3C(C)C)CC2)cn1` [Compound 17-23], the IC50 was in the range of 100 to 500 nM.

In turn, `Cc1nn(C)c(C)c1-c1ccc(-n2nnc(C(=O)NC3C(C)(C)C3(C)C)c2C(C)C)cc1` [Compound 17-24] yielded an IC50 of 100 to 500 nM.

As to `Cc1nn(C)c(C)c1-c1ccc(-n2nnc(C(=O)Nc3ccccn3)c2C(C)C)cc1` [Compound 17-25], the IC50 was in the range of 100 to 500 nM.

For `CCn1cc(CNC(=O)c2nnn(-c3ccc(-c4ccc(C#N)cc4)cc3)c2C2CCC2)cn1` [Compound 17-26], the IC50 is 500 to 1000 nM.

The molecule `CC(C)c1c(C(=O)Nc2ccncc2)nnn1-c1ccc(-c2cnn(C)c2)cc1` [Compound 17-27] displayed an IC50 of 500 to 1000 nM.

Take `Cc1cc(NC(=O)c2nnn(-c3ccc(-c4ccc(C#N)cc4)cc3)c2C(C)C)ccn1` [Compound 17-28]: the IC50 was 500 to 1000 nM.

The molecule `Cc1nn(C)c(C)c1-c1ccc(-n2nnc(C(=O)Nc3cccnc3)c2C(C)C)cc1` [Compound 17-29] had an IC50 of 500 to 1000 nM.

Consider `CC(C)c1c(C(=O)Nc2cccc(C#N)c2)nnn1-c1ccc(-c2cnn(C)c2)cc1` [Compound 17-30], for which the IC50 fell in the range of 500 to 1000 nM.

With `Cc1cc(NC(=O)c2nnn(-c3ccc(-c4ccccc4)cc3)c2C(C)C)ccn1` [Compound 17-31], the IC50 was 1000 to 3000 nM.

In turn, `CC(C)c1c(C(=O)NC2(c3cccnc3)CC2)nnn1-c1ccc(-c2ccc(C#N)cc2)cc1` [Compound 17-32] showed an IC50 of 1000 to 3000 nM.

Molecule `Cc1ccc(CNC(=O)c2nnn(-c3ccc(-c4ccc(C#N)nc4)cc3)c2C(C)C)cn1` [Compound 17-33] yielded an IC50 of 1000 to 3000 nM.

The values above are taken from patent publication US20260001871A1, “TRIAZOLE DERIVATIVES AS MODULATORS OF MAS-RELATED G-PROTEIN RECEPTOR D” (ESCIENT PHARMACEUTICALS, INC., priority 2022, published 2026).
